Test results from ChEMBL document CHEMBL5126563, “Design, synthesis, in silico studies, and antiproliferative evaluations of novel indolin-2-one derivatives containing 3-hydroxy-4-pyridinone fragment” (Bioorg Med Chem Lett, 2022).

How the values were obtained:
Assay type in all cases: functional, cell-based
MCF7 = test: Cytotoxicity against human MCF7 cells measured after 48 hrs by MTT assay; details: MCF7, 48 h
A549 = test: Cytotoxicity against human A549 cells measured after 48 hrs by MTT assay; details: A549, 48 h
K562 = test: Cytotoxicity against human K562 cells measured after 48 hrs by MTT assay; details: K562, 48 h
MOLM-13 = test: Cytotoxicity against human MOLM-13 cells measured after 48 hrs by MTT assay; details: MOLM-13, 48 h

Row | SMILES | EC50 (MCF7) | EC50 (A549) | EC50 (K562) | EC50 (MOLM-13)
1 | CC(=O)Nc1ccc(NC(=O)CN2C(=O)/C(=N\NC(=O)Cn3ccc(=O)c(O)c3C)c3ccccc32)cc1 | 51.9 µM | > 100 µM | – | –
2 | Cc1c(O)c(=O)ccn1CC(=O)N/N=C1\C(=O)N(CC(=O)Nc2ccc(Cl)cc2Cl)c2ccccc21 | 43.2 µM | 61.5 µM | 1.81 µM | 1.62 µM
3 | Cc1c(O)c(=O)ccn1CC(=O)N/N=C1\C(=O)N(CC(=O)Nc2ccccc2Cl)c2ccccc21 | 46.4 µM | > 100 µM | – | –
4 | Cc1c(O)c(=O)ccn1CC(=O)N/N=C1\C(=O)N(CC(=O)Nc2ccc(Br)cc2)c2ccccc21 | 32.5 µM | 29.3 µM | 1.85 µM | 1.17 µM
5 | COc1ccc(NC(=O)CN2C(=O)/C(=N\NC(=O)Cn3ccc(=O)c(O)c3C)c3ccccc32)cc1 | > 100 µM | 78 µM | – | –
6 | Cc1cccc(NC(=O)CN2C(=O)/C(=N\NC(=O)Cn3ccc(=O)c(O)c3C)c3ccccc32)c1C | 51.9 µM | 39.2 µM | – | –
7 | Cc1c(O)c(=O)ccn1CC(=O)N/N=C1\C(=O)N(CC(=O)Nc2cccc(Cl)c2)c2ccccc21 | 34.6 µM | 28 µM | – | –
8 | C#Cc1cccc(Nc2ncnc3cc(OCCOC)c(OCCOC)cc23)c1 [ERLOTINIB] | 2.83 µM | 0.29 µM | – | –
9 | N#Cc1cc2cc(CN3CCC(Nc4ncnc5sc(CC(F)(F)F)cc45)CC3)c(O)cc2n1Cc1cn[nH]c1 | – | – | 2.7 µM | 0.14 µM
10 | Cc1c(O)c(=O)ccn1CC(=O)N/N=C1\C(=O)N(CC(=O)Nc2ccc(Cl)cc2)c2ccccc21 | 31.4 µM | 28.3 µM | – | –
11 | Cc1c(O)c(=O)ccn1CC(=O)N/N=C1\C(=O)N(CC(=O)Nc2cc(Cl)cc(Cl)c2)c2ccccc21 | 35.1 µM | 22.1 µM | 1.22 µM | 0.69 µM
12 | Cc1c(O)c(=O)ccn1CC(=O)N/N=C1\C(=O)N(CC(=O)Nc2ccccc2)c2ccccc21 | 48.4 µM | 29.2 µM | – | –
13 | Cc1ccc(NC(=O)CN2C(=O)/C(=N\NC(=O)Cn3ccc(=O)c(O)c3C)c3ccccc32)cc1 | 52.2 µM | 47.5 µM | – | –
